We go through 21 molecules from US20070213359A1 (ACADIA Pharmaceuticals Inc., priority 2005, published 2007).

Like-named read-outs stand apart in the source and are kept apart here.

One experiment has as its target T1, GHSR1a receptor (Homo sapiens, UniProt Q92847).
T1 construct: expressed in transfected cells; host or cells: HEK293 (membranes)
Put plainly: 125I-Ghrelin binding assay. Conditions: displacement of 125I-ghrelin (0.053 nM), membranes of HEK293 cells transfected with GHSR1a; Cheng-Prussoff; '—' not defined; read-out: Binding pKi (converted).

The target of the next experiment is Ghrelin receptor (Homo sapiens, UniProt Q92847). Put plainly: Receptor Selection and Amplification Technology (R-SAT) assay. It counts as cell-based. Also on record: expressed in transfected cells; host or cells: NIH3T3. The note with it: for IC50: '—' not defined (nd used separately), read-out: RSAT pIC50 (converted); for Emax: read-out: RSAT Eff(%).
Chain of Ghrelin receptor (Q92847 whole entry): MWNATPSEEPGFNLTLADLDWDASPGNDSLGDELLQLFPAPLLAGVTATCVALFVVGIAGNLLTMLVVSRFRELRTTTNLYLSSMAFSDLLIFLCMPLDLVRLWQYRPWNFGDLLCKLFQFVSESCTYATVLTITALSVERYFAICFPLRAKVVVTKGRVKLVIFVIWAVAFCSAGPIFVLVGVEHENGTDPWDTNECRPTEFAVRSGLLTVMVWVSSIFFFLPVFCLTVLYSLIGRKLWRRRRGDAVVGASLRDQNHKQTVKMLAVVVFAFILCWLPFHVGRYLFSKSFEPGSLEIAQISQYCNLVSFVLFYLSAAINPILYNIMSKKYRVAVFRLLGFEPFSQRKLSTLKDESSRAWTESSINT
[1] abbreviates: negative logarithm of ligand concentration causing 50% inhibition of constitutive receptor response, transfected NIH3T3 cells.
Where [2] appears, read: percent inhibition at saturating ligand, normalized to reference ligand Substance P analog = 100%.

T1 sequence (Q92847 whole entry): as above

In the case of `CC(=O)c1cn(CCCN2C3CCC2CC(CC(=O)c2ccccc2)C3)c2c(C)cccc12` (stereo not drawn), at GHSR1a receptor, the Ki is 200 nM. Besides, the IC50 at Ghrelin receptor (setting [1]) is 0.794 nM. In addition, the Emax on Ghrelin receptor (setting [2]) amounted to 91%.
On to `COc1cccc2c(C(C)=O)cn(CCCN3C4CCC3CC(Oc3ccc(Cl)cc3)C4)c12` (stereo not drawn), for which the Ki on GHSR1a receptor was 501 nM. Also, the IC50 on Ghrelin receptor (setting [1]) is 12.6 nM. Moreover, the “RSAT Eff(%)” value on Ghrelin receptor (setting [2]) is recorded as 113%.
Regarding `COc1cccc2c(C(C)=O)cn(CCCN3CCN(c4ccc(C#N)cc4)CC3)c12`, on GHSR1a receptor, the Ki is 631 nM. The IC50 at Ghrelin receptor (setting [1]) was 12.6 nM. In addition, the Emax at Ghrelin receptor (setting [2]) amounted to 90%.
`COc1cccc2c(C(=O)Cc3ccccc3)cn(CCCN3C4CCC3CC(CC(=O)c3ccc(Cl)cc3)C4)c12` (stereo not drawn): the Ki at GHSR1a receptor is 31.6 nM. Moreover, the IC50 on Ghrelin receptor ([…]) is 12.6 nM. Further, the Emax on Ghrelin receptor was found to be 167%.
For `CC(=O)c1c(C)n(CCCN2C3CCC2CC(CCc2ccc(Cl)cc2)C3)c2c(Br)cccc12` (stereo not drawn), the Ki on GHSR1a receptor is 316 nM. In addition, the IC50 at Ghrelin receptor (setting [1]) is 12.6 nM. For the same molecule, the Emax on Ghrelin receptor (setting [2]) was determined as 69%.
`CC(=O)c1cn(CCCN2CCC(Oc3ccccc3Cl)CC2)c2c(Br)cccc12`: at GHSR1a receptor, the Ki is 126 nM. The IC50 at Ghrelin receptor (setting [1]) was 12.6 nM. Also, on Ghrelin receptor (setting [2]), the Emax stood at 96%.
Take `COc1cccc2c(C(=O)c3ccccc3)cn(CCCN3CCN(CCOc4ccccc4)CC3)c12`: the Ki on GHSR1a receptor was 251 nM. In addition, at Ghrelin receptor ([…]), the IC50 is 12.6 nM. The Emax on Ghrelin receptor amounted to 98%.
For `COc1cccc2c(C(=O)Cc3ccccc3)cn(CCCN3CCN(CCOc4ccccc4)CC3)c12` the same measures were 39.8 nM, 12.6 nM and 99%.
Take `COc1cccc2c(C(C)=O)cn(CCCN3CCC(Oc4ccccc4Cl)CC3)c12`: the Ki at GHSR1a receptor is 794 nM. Further, the IC50 on Ghrelin receptor (setting [1]) was 15.8 nM. At Ghrelin receptor (setting [2]), the “RSAT Eff(%)” value worked out at 98%.
In the case of `CC(=O)c1cn(CCCN2CCC(Oc3cccc(Cl)c3)CC2)c2ncccc12`, on GHSR1a receptor, the Ki is 316 nM. Moreover, the IC50 on Ghrelin receptor (setting [1]) is 15.8 nM. Besides, the Emax at Ghrelin receptor (setting [2]) stood at 124%.
As for `CCCCC1CCN(CCCn2cc(C(=O)NCc3cccc(C)c3)c3cccc(OC)c32)CC1`, on GHSR1a receptor, the Ki is 316 nM. Moreover, the IC50 at Ghrelin receptor ([…]) is 15.8 nM. Moreover, the Emax on Ghrelin receptor stood at 72%.
In the case of `COc1cccc2c(C(C)=O)cn(CCCN3CCN(c4ccc(F)cc4)CC3)c12`, the Ki at GHSR1a receptor was 501 nM. Further, on Ghrelin receptor (setting [1]), the IC50 was 15.8 nM. Further, the Emax at Ghrelin receptor (setting [2]) amounted to 95%.
In the same order, the values of `CC(=O)c1cn(CCCN2C3CCC2CC(Oc2ccc(F)cc2)C3)c2ncccc12` (stereo not drawn) are 501 nM, 15.8 nM and 77%.
In the same order, the values of `CCCCC1CCN(CCCn2cc(C(C)=O)c3cccc(Br)c32)CC1` are 158 nM, 20 nM and 87%.
In the same order, the values of `COc1cccc2c(C(C)=O)cn(CCCN3CCN(Oc4ccccc4Cl)CC3)c12` are 316 nM, 20 nM and 100%.
On to `CC(=O)c1cn(CCCN2C3CCC2CC(Oc2ccccc2Cl)C3)c2c(C#N)cccc12` (stereo not drawn), for which the Ki at GHSR1a receptor was 200 nM. Also, the IC50 on Ghrelin receptor (setting [1]) is 20 nM. On Ghrelin receptor (setting [2]), the Emax came to 83%.
For `CC(=O)c1cn(CCCN2CCC(Oc3ccccc3Cl)CC2)c2c(C)cccc12` the same measures were 631 nM, 20 nM and 110%.
In the same order, the values of `CC(=O)c1cn(CCCN2CCC(Oc3cccc(Cl)c3)CC2)c2c(Cl)cccc12` are 100 nM, 20 nM and 83%.
For `CCCCC1CCN(CCCn2cc(C(C)=O)c3cccc(OC)c32)CC1` the same measures were 1580 nM, 20 nM and 116%.
Turning to `CCc1cccc2c(C(C)=O)cn(CCCN3C4CCC3CC(CCc3ccc(Cl)cc3)C4)c12` (stereo not drawn), at GHSR1a receptor, the Ki was 100 nM. In addition, the IC50 on Ghrelin receptor (setting [1]) is 20 nM. Further, the Emax on Ghrelin receptor was found to be 95%.
As for `COc1cccc2c(C(=O)c3ccccc3)cn(CCCNCCOc3ccccc3)c12`, on GHSR1a receptor, the Ki is 158 nM. Also, at Ghrelin receptor ([…]), the IC50 is 20 nM. Also, at Ghrelin receptor, the Emax came to 74%.
